Reference: PMC6215995 (International Journal for Parasitology: Drugs and Drug …, 2018)
Like-named read-outs stand apart in the source and are kept apart here. Marks after values point to notes of the source that are not given here.

What was measured:
[1] = system: P. falciparum 3D7; experiment: Antiplasmodial SYBR green assay, CQ-sensitive strain; format: cell-based; conditions: for Selective index 3D7: ratio between MDL50 and IC50, 3D7
Description: Briefly, the plates were centrifuged at 700g for 5 min at room temperature to remove the medium, washed with PBS and incubated for 30 min with lysis buffer solution [2.4228 g TRIS, ultra-pure for 20 mM solution, pH 7.5; 1.8612 g of EDTA 5 mM ultrapure for 5 mM solution; 80 μg Saponin (0.008% w/v); 800 μL of Triton X-100 (0.08% v/v); water Type I] and SYBR green I DNA stain (1:20000). The fluorescence of uninfected erythrocytes was considered as background.
(§1) The half-maximal drug inhibitory concentration (IC50) was estimated by curve fitting using the software from the OriginLab Corporation (USA) and compared to the parasite growth in the drug-free medium.

[2] = system: P. berghei NK65; experiment: Suppressive test in P. berghei infected mice; format: in vivo; conditions: for Mice survival in comparison with the non-treated control / Parasitemia on day 5 / Parasitemia %reduction on day 5 / Parasitemia on day 7 / Parasitemia %reduction on day 7 / Parasitemia on day 9 / Parasitemia %reduction on day 9 / Parasitemia on day 11 / Parasitemia %reduction on day 11 / Parasitemia on day 13 / Parasitemia %reduction on day 13 / Parasitemia on day 15 / Parasitemia %reduction on day 15 / Survival / Reduction of parasitemia until day 11 after infection: three consecutive days; for Mice survival in comparison with the non-treated control: Mann-Whitney test p < 0.05; for Parasitemia %reduction on day 5: day 5, vs non treated; for Parasitemia %reduction on day 7: day 7, vs non treated; for Parasitemia %reduction on day 9: day 9, vs non treated; for Parasitemia %reduction on day 11: day 11, vs non treated; for Parasitemia %reduction on day 13: day 13, vs non treated; for Parasitemia %reduction on day 15: day 15, vs non treated
Description: The P. berghei NK65 strain was obtained as a donation from New York University and maintained through weekly blood passages. For the experiments, groups of up to 30 mice were inoculated i.p. with 1 × 10^5 infected erythrocytes, kept together for about 24 h, then randomly distributed into groups of five per cage. […] On days 5–15 after the parasite inoculation, blood was taken from the tail of each mouse and used to prepare thin smears that were methanol-fixed, Giemsa-stained, and examined microscopically (1000×) to determine parasitemia. […] The experiments were performed twice.

[3] = system: β-hematin formation; experiment: Inhibition of β-hematin formation assay; format: biochemical; conditions: MOG lipid catalyst, sodium acetate pH 4.8, 37 °C, 2 h; read-out: β-hematin inhibition IC50 (mM)± SD
Description: The assay was performed using a lipid as a catalyst to promote crystallization ([Pisciotta et al., 2007]; [Fitch et al., 1999]). Briefly, drug stock solutions were prepared in DMSO and were used at a final concentration of up to 30 mM. […] After incubation for 30 min at room temperature, the amount of solubilized monomeric heme was determined by measuring the absorbance at 405 nm. […] The absorbance was read at 405 nm to determine the total amount of heme present in each well. The inhibition of heme crystallization was determined as a function of the amount of monomeric heme that was not crystallized divided by the total amount of heme present in the assay mixture. The results are expressed as IC50 values based on the percentage inhibition of β-hematin formation by the compounds […] and DAQ.

[4] = system: P. falciparum K1; experiment: Antiplasmodial SYBR green assay, multidrug-resistant strain; format: cell-based; conditions: for Selective index K1: ratio between MDL50 and IC50, K1
Description: The freshly sorbitol synchronized ring stages were immediately incubated with the test compounds at various concentrations (from 10 to 0.152 μM or 1.0–0.0152 μM) that were previously solubilized in 0.05% dimethyl sulfoxide (DMSO) (v/v) ([Lambros and Vanderberg, 1979]). […] The antiplasmodial activity of the compounds was measured through SYBR green assay ([Smilkstein et al., 2004]). Briefly, the plates were centrifuged at 700g for 5 min at room temperature to remove the medium, washed with PBS and incubated for 30 min with lysis buffer solution [2.4228 g TRIS, ultra-pure for 20 mM solution, pH 7.5; 1.8612 g of EDTA 5 mM ultrapure for 5 mM solution; 80 μg Saponin (0.008% w/v); 800 μL of Triton X-100 (0.08% v/v); water Type I] and SYBR green I DNA stain (1:20000). The fluorescence of uninfected erythrocytes was considered as background. Fluorescence was measured on fluorimeter (SpectraMax340PC384) at 485/535 nm.
as §1

[5] = system: BGM-VN; conditions: MTT, 24 h
Description: The compounds (20 μL), at various concentrations (400–1.0 μM), were placed in the 96-well plates, incubated with the cultured cells for 24 h under a 5% CO2 atmosphere at 37 °C and then the 3-(4,5-dimethylthiazol-2-yl)-2,5-diphenyltetrazolium bromide (MTT) solution (5 mg/mL; 20 μL/well for 3 h) was used to evaluate the mitochondrial viability. The supernatants were carefully removed and 100 μL DMSO were added to each well and mixed to solubilize the formazan crystals. The optical density was determined at 570 and 630 nm (background) (SpectraMax340PC384). The cell viability was expressed as the percentage of the control absorbance in the untreated cells after subtracting the appropriate background. Each test was performed in triplicate in at least two different experiments.

[6] = 3D7 CQ-sensitive strain, read-out: IC50 (nM ± SD) P. falciparum 3D7
[7] = oral 50 mg/kg, followed until day 30
[8] = K1 multidrug-resistant strain, read-out: IC50 (nM ± SD) P. falciparum K1
[9] = 20 mg/kg, followed until day 30
[10] = Plasmodium falciparum, 3D7 CQ-sensitive strain, read-out: IC50 (nM ± SD) P. falciparum 3D7
[11] = Plasmodium falciparum, K1 multidrug-resistant strain, read-out: IC50 (nM ± SD) P. falciparum K1

Compound	IC50 [1, 6]	Mice survival in comparison with the non-treated control ([2]; oral 50 mg/kg)	Parasitemia on day 5 ([2]; oral 50 mg/kg)	Parasitemia on day 7 ([2]; oral 50 mg/kg)	Parasitemia %reduction on day 7 ([2]; oral 50 mg/kg)	Parasitemia on day 9 ([2]; oral 50 mg/kg)	Parasitemia %reduction on day 9 ([2]; oral 50 mg/kg)	Parasitemia on day 11 ([2]; oral 50 mg/kg)	Parasitemia %reduction on day 11 ([2]; oral 50 mg/kg)	Parasitemia on day 13 ([2]; oral 50 mg/kg)	Parasitemia %reduction on day 13 ([2]; oral 50 mg/kg)	Parasitemia on day 15 ([2]; oral 50 mg/kg)	Parasitemia %reduction on day 15 ([2]; oral 50 mg/kg)	Survival [2, 7]	IC50 [3]	IC50 [4, 8]	MLD50 BGM-VN [5]	Reduction of parasitemia until day 11 after infection ([2]; oral 50 mg/kg)	Parasitemia %reduction on day 5 ([2]; oral 50 mg/kg)	IC50 [1, 10]	also measured
N-(prop-2-enyl)-7-chloroquinoline-4-amine [PCQ]	377 ± 14 nM	not increased	1.04	4.83	10%	5.75	8%	7.5	32%	7.0	32%	34.5	0%	17 ± 8	3 ± 3 mM	405 ± 32 nM	407 ± 185 µM				Parasitemia %reduction on day 5 ([2]; oral 50 mg/kg, 50 mg/kg): 73%
CCN(CC)CCCC(C)Nc1ccnc2cc(Cl)ccc12 (centres unmarked) [CQ, Chloroquine, reference compound]															0.76 ± 0.46 mM						IC50 ([1]; Plasmodium falciparum, 3D7, read-out: IC50 (nM ± SD) P. falciparum 3D7): 36 ± 12 nM; Survival in words [2, 9]: survived until the last day of the experiment; Parasitemia on day 5 ([2]; 20 mg/kg): 0.00; Parasitemia %reduction on day 5 ([2]; 20 mg/kg): 100%; Parasitemia on day 7 ([2]; 20 mg/kg): 0.00; Parasitemia %reduction on day 7 ([2]; 20 mg/kg): 100%; Parasitemia on day 9 ([2]; 20 mg/kg): 0.00; Parasitemia %reduction on day 9 ([2]; 20 mg/kg): 100%; Parasitemia on day 11 ([2]; 20 mg/kg): 0.00; Parasitemia %reduction on day 11 ([2]; 20 mg/kg): 100%; Parasitemia on day 13 ([2]; 20 mg/kg): 0.00; Parasitemia %reduction on day 13 ([2]; 20 mg/kg): 100%; Parasitemia on day 15 ([2]; 20 mg/kg): 0.00; Parasitemia %reduction on day 15 ([2]; 20 mg/kg): 100%; Survival [2, 9]: >30 ^b; Parasitemia in words ([2]; 20 mg/kg, until the last day of evaluation (day 15)): no parasitemia; IC50 ([4]; Plasmodium falciparum, K1, read-out: IC50 (nM ± SD) P. falciparum K1): 177 ± 20 nM
N-(4-(dimethylamino)but-2-enyl)-7-chloro-quinolin-4-amine [DAQ]	46 ± 4 nM	significantly higher	0.00	0.00	100%	0.00	100%	0.00	100%	0.77	92%	3.67	82%	28 ± 1 ^b	0.15 ± 0.03 mM	50 ± 3 nM	1481 ± 39 µM	100%	100%		
O=C(O)CNc1ccnc2cc(Cl)ccc12 [GIQ, Acid 2-(7-chloroquinolin-4-ylamino) acetic]															7.6 ± 0.2 mM		>1000 µM			> 10000 nM	Selective index 3D7 [1]: Inactive; Activity against P. falciparum in words ([1]; sensitive and resistant parasites, highest dose 10 μM): inactive in all doses tested; IC50 [4, 11]: > 10000 nM; Selective index K1 [4]: Inactive
NCCNc1ccnc2cc(Cl)ccc12 [CEQ, N-(2-aminoethyl)-7-chloroquinolin-4-amine]		significantly higher	0.00	0.00	100%	0.00	100%	0.00	100%	0.57	94%	4	80%	26 ± 6 ^b	1.2 ± 0.76 mM		179 ± 40 µM	100%	100%	273 ± 12 nM	Selective index 3D7 [1]: 655; IC50 [4, 11]: 218 ± 44 nM; Selective index K1 [4]: 821
